In US6737383B1, “Herbicidal oxadiazolidines” (priority 1999, dated 2004):

Experiments:
cocklebur = assay: Test B pre/postemergence cocklebur; format: in vivo, Xanthium strumarium
Summary of the method: (§1)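 Response is a visual 0-to-10 score relative to untreated plants, where 0 means no effect and 10 means complete control, taken twelve to sixteen days after application. Treatments went onto soil at planting and onto foliage of 1- to 4-leaf plants, using a surfactant-containing non-phytotoxic solvent.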

wheat = assay: Test B pre/postemergence wheat; format: in vivo, Triticum aestivum
Summary of the method: as §1

velvetleaf = assay: Test B pre/postemergence velvetleaf; format: in vivo, Abutilon theophrasti
Summary of the method: as §1

crabgrass = assay: Test B pre/postemergence crabgrass; format: in vivo, Digitaria sanguinalis
Summary of the method: as §1

morningglory = assay: Test B pre/postemergence morningglory; format: in vivo, Ipomoea hederacea
Summary of the method: as §1

duck salad = assay: Test B flood test duck salad; format: in vivo, Heteranthera limosa
Summary of the method: (§2)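 Read-out is a visual response score from 0 (no effect) to 10 (complete control), assigned by comparison with untreated controls. Treatment was applied at the 2-leaf stage, and plants stayed in the greenhouse for twelve to sixteen days before scoring.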

pigweed = assay: Test B pre/postemergence pigweed; format: in vivo, Amaranthus retroflexus
Summary of the method: as §1

surinam grass = assay: Test B pre/postemergence surinam grass; format: in vivo, Brachiaria decumbens
Summary of the method: as §1

soybean = assay: Test B pre/postemergence soybean; format: in vivo, Glycine max
Summary of the method: as §1

corn = assay: Test B pre/postemergence corn; format: in vivo, Zea mays
Summary of the method: as §1

giant foxtail = assay: Test B pre/postemergence giant foxtail; format: in vivo, Setaria faberii
Summary of the method: as §1

wild oat = assay: Test B pre/postemergence wild oat; format: in vivo, Avena fatua
Summary of the method: as §1

smallflower flatsedge = assay: Test B flood test smallflower flatsedge; format: in vivo, Cyperus difformis
Summary of the method: as §2

bamyardgrass = assay: Test B flood test barnyardgrass; format: in vivo, Echinochloa crus-galli
Summary of the method: as §2

rape = assay: Test B pre/postemergence rape; format: in vivo, Brassica napus
Summary of the method: as §1

bedstraw = assay: Test B pre/postemergence bedstraw; format: in vivo, Galium aparine
Summary of the method: as §1

sugar beet = assay: Test B pre/postemergence sugar beet; format: in vivo, Beta vulgaris
Summary of the method: as §1

purple nutsedge = assay: Test B pre/postemergence purple nutsedge; format: in vivo, Cyperus rotundus; details: Preemergence
Summary of the method: as §1

blackgrass = assay: Test B pre/postemergence blackgrass; format: in vivo, Alopecurus myosuroides
Summary of the method: as §1

rice = assay: Test B flood test rice; format: in vivo, Oryza sativa
Description: At the same time, these crop and weed species were also treated with postemergence applications of test chemicals formulated in the same manner. Plants ranged in height from 2 to 18 cm (1- to 4-leaf stage) for postemergence treatments. Plant species in the flood test consisted of rice (Oryza sativa), smallflower flatsedge (Cyperus difformis), duck salad (Heteranthera limosa) and bamyardgrass (Echinochloa crus-galli) grown to the 2-leaf stage for testing. Treated plants and controls were maintained in a greenhouse for twelve to sixteen days, after which all species were compared to controls and visually evaluated. Plant response ratings, summarized in Table B, are based on a scale of 0 to 10 where 0 is no effect and 10 is complete control. A dash (−) response means no test result.

[1] = Postemergence, Rate 62 g/ha, scale of 0 to 10, 0 is no effect, 10 is complete control
[2] = Postemergence, Rate 125 g/ha, scale 0 to 10, 0 is no effect, 10 is complete control
[3] = Postemergence, Rate 500 g/ha, scale 0 to 10, 0 is no effect, 10 is complete control
[4] = Preemergence, Rate 62 g/ha, scale 0 to 10 (0 no effect, 10 complete control)
[5] = Preemergence, Rate 125 g/ha, scale 0 to 10, 0 is no effect, 10 is complete control
[6] = Preemergence, Rate 500 g/ha, scale of 0 to 10 where 0 is no effect and 10 is complete control
[7] = Rate 250 g/ha, Postemergence, scale of 0 to 10 where 0 is no effect and 10 is complete control
[8] = Rate 62 g/ha, flood test species, Pre-emergence, visual evaluation after twelve to sixteen days
[9] = Rate 125 g/ha, under heading Pre-emergence, flood test species, visual evaluation after twelve to sixteen days
[10] = Rate 250 g/ha, Pre-emergence (flood test species), scale 0 to 10, 0 is no effect, 10 is complete control
[11] = Rate 500 g/ha, Pre-emergence section of Table B, 0 to 10 scale (0 no effect, 10 complete control)
[12] = Pre-emergence, Rate 62 g/ha, scale 0 to 10, 0 is no effect, 10 is complete control
[13] = Rate 125 g/ha, Pre-emergence section (flood test species), scale 0 to 10, 0 no effect, 10 complete control

SMILES: C=CCCCn1c(=O)on(C(=O)N(c2ccc(Cl)cc2)C(C)C)c1=O [Compound 546]
- Cocklebur plant response rating (cocklebur; [1]): 0
- Cocklebur plant response rating (cocklebur; [2]): 0
- Plant response rating, Cocklebur (cocklebur; [3]): 0
- Cocklebur plant response rating (cocklebur; [4]): 0
- Cocklebur plant response rating (cocklebur; [5]): 0
- Cocklebur plant response rating (0 to 10 scale) (cocklebur; Preemergence, Rate 250 g/ha): 0
- Cocklebur plant response rating (cocklebur; [6]): 0
- Plant response rating, Cocklebur (cocklebur; [7]): 0
- Wheat plant response rating (wheat; [1]): 0
- Wheat plant response rating (wheat; [2]): 0
- Plant response rating, Wheat (wheat; [3]): 0
- Wheat plant response rating (wheat; [4]): 0
- Wheat plant response rating (wheat; [5]): 0
- Wheat plant response rating (0 to 10 scale) (wheat; Preemergence, Rate 250 g/ha): 0
- Wheat plant response rating (wheat; [6]): 0
- Plant response rating, Wheat (wheat; [7]): 0
- Velvetleaf plant response rating (velvetleaf; [1]): 0
- Velvetleaf plant response rating (velvetleaf; [2]): 0
- Plant response rating, Velvetleaf (velvetleaf; [3]): 2
- Velvetleaf plant response rating (velvetleaf; [4]): 0
- Velvetleaf plant response rating (velvetleaf; [5]): 0
- Velvetleaf plant response rating (0 to 10 scale) (velvetleaf; Preemergence, Rate 250 g/ha): 0
- Velvetleaf plant response rating (velvetleaf; [6]): 2
- Crabgrass plant response rating (crabgrass; [1]): 1
- Crabgrass plant response rating (crabgrass; [2]): 7
- Plant response rating, Crabgrass (crabgrass; [3]): 10
- Crabgrass plant response rating (crabgrass; [4]): 7
- Crabgrass plant response rating (crabgrass; [5]): 7
- Crabgrass plant response rating (0 to 10 scale) (crabgrass; Preemergence, Rate 250 g/ha): 10
- Crabgrass plant response rating (crabgrass; [6]): 10
- Plant response rating, Crabgrass (crabgrass; [7]): 7
- Morningglory plant response rating (morningglory; [1]): 0
- Morningglory plant response rating (morningglory; [2]): 4
- Plant response rating, Morningglory (morningglory; [3]): 10
- Morningglory plant response rating (morningglory; [4]): 0
- Morningglory plant response rating (morningglory; [5]): 0
- Morningglory plant response rating (0 to 10 scale) (morningglory; Preemergence, Rate 250 g/ha): 0
- Morningglory plant response rating (morningglory; [6]): 0
- Plant response rating, Morningglory (morningglory; [7]): 5
- Plant response rating, Ducksalad (0 to 10 scale, 0 is no effect, 10 is complete control) (duck salad; [8]): 0
- Ducksalad plant response rating (0 to 10 scale, 0 is no effect, 10 is complete control) (duck salad; [9]): 0
- Ducksalad plant response rating (duck salad; [10]): 0
- Ducksalad plant response rating (duck salad; [11]): 0
- Redroot pigweed plant response rating (pigweed; [1]): 0
- Plant response rating, Redroot pigweed (pigweed; [3]): 3
- Redroot pigweed plant response rating (pigweed; [5]): 3
- Redroot pigweed plant response rating (0 to 10 scale) (pigweed; Preemergence, Rate 250 g/ha): 10
- Plant response rating, Redroot pigweed (pigweed; [7]): 0
- B. signalgrass plant response rating (surinam grass; [1]): 0
- B. signalgrass plant response rating (surinam grass; [2]): 0
- Plant response rating, B. signalgrass (surinam grass; [3]): 0
- B. signalgrass plant response rating (surinam grass; [4]): 0
- B. signalgrass plant response rating (0 to 10 scale, 0 is no effect, 10 is complete control) (surinam grass; Preemergence, Rate 250 g/ha): 0
- B. signalgrass plant response rating (surinam grass; [6]): 2
- Plant response rating, B. signalgrass (surinam grass; [7]): 0
- Soybean plant response rating (soybean; [1]): 1
- Soybean plant response rating (soybean; [2]): 1
- Plant response rating, Soybean (soybean; [3]): 4
- Soybean plant response rating (soybean; [4]): 0
- Soybean plant response rating (soybean; [5]): 0
- Soybean plant response rating (0 to 10 scale) (soybean; Preemergence, Rate 250 g/ha): 0
- Soybean plant response rating (soybean; [6]): 0
- Plant response rating, Soybean (soybean; [7]): 2
- Corn plant response rating (corn; [1]): 0
- Corn plant response rating (corn; [2]): 0
- Plant response rating, Corn (corn; [3]): 0
- Corn plant response rating (corn; [4]): 0
- Corn plant response rating (corn; [5]): 0
- Corn plant response rating (0 to 10 scale) (corn; Preemergence, Rate 250 g/ha): 0
- Corn plant response rating (corn; [6]): 0
- Plant response rating, Corn (corn; [7]): 0
- Giant foxtail plant response rating (giant foxtail; [1]): 0
- Plant response rating, Giant foxtail (giant foxtail; [3]): 7
- Giant foxtail plant response rating (giant foxtail; [5]): 4
- Giant foxtail plant response rating (0 to 10 scale) (giant foxtail; Preemergence, Rate 250 g/ha): 10
- Giant foxtail plant response rating (giant foxtail; [6]): 10
- Plant response rating, Giant foxtail (giant foxtail; [7]): 4
- Wild oats plant response rating (wild oat; [1]): 0
- Wild oats plant response rating (wild oat; [2]): 0
- Plant response rating, Wild oats (wild oat; [3]): 2
- Wild oats plant response rating (wild oat; [4]): 0
- Wild oats plant response rating (wild oat; [5]): 0
- Wild oats plant response rating (0 to 10 scale) (wild oat; Preemergence, Rate 250 g/ha): 0
- Wild oats plant response rating (wild oat; [6]): 3
- Plant response rating, Wild oats (wild oat; [7]): 0
- Plant response rating, S. Flatsedge (0 to 10 scale, 0 is no effect, 10 is complete control) (smallflower flatsedge; [8]): 0
- S. Flatsedge plant response rating (0 to 10 scale, 0 is no effect, 10 is complete control) (smallflower flatsedge; [9]): 0
- S. Flatsedge plant response rating (smallflower flatsedge; [10]): 0
- S. Flatsedge plant response rating (smallflower flatsedge; [11]): 0
- Plant response rating, Barnyardgrass (0 to 10 scale, 0 is no effect, 10 is complete control) (bamyardgrass; [8]): 0
- Barnyardgrass plant response rating (0 to 10 scale, 0 is no effect, 10 is complete control) (bamyardgrass; [9]): 0
- Barnyardgrass plant response rating (bamyardgrass; [10]): 0
- Barnyardgrass plant response rating (bamyardgrass; [11]): 0
- Rape plant response rating (rape; [1]): 0
- Rape plant response rating (rape; [2]): 0
- Plant response rating, Rape (rape; [3]): 7
- Rape plant response rating (rape; [4]): 0
- Rape plant response rating (rape; [5]): 0
- Rape plant response rating (0 to 10 scale) (rape; Preemergence, Rate 250 g/ha): 0
- Rape plant response rating (rape; [6]): 0
- Plant response rating, Rape (rape; [7]): 7
- Bedstraw plant response rating (bedstraw; [1]): 0
- Bedstraw plant response rating (bedstraw; [2]): 9
- Plant response rating, Bedstraw (bedstraw; [3]): 9
- Bedstraw plant response rating (bedstraw; [4]): 0
- Bedstraw plant response rating (0 to 10 scale) (bedstraw; Preemergence, Rate 250 g/ha): 8
- Plant response rating, Bedstraw (bedstraw; [7]): 9
- Sugarbeets plant response rating (sugar beet; [1]): 0
- Sugarbeets plant response rating (sugar beet; [2]): 0
- Plant response rating, Sugarbeets (sugar beet; [3]): 5
- Sugarbeets plant response rating (sugar beet; [4]): 0
- Sugarbeets plant response rating (sugar beet; [5]): 0
- Sugarbeets plant response rating (0 to 10 scale) (sugar beet; Preemergence, Rate 250 g/ha): 2
- Sugarbeets plant response rating (sugar beet; [6]): 2
- Plant response rating, Sugarbeets (sugar beet; [7]): 4
- Nutsedge plant response rating (purple nutsedge; Rate 62 g/ha, scale 0 to 10 (0 no effect, 10 complete control)): 0
- Nutsedge plant response rating (purple nutsedge; Rate 125 g/ha, scale 0 to 10, 0 is no effect, 10 is complete control): 0
- Nutsedge plant response rating (0 to 10 scale) (purple nutsedge; Rate 250 g/ha): 0
- Nutsedge plant response rating (purple nutsedge; Rate 500 g/ha, scale of 0 to 10 where 0 is no effect and 10 is complete control): 0
- Blackgrass plant response rating (blackgrass; [1]): 0
- Blackgrass plant response rating (blackgrass; [2]): 0
- Plant response rating, Blackgrass (blackgrass; [3]): 6
- Blackgrass plant response rating (blackgrass; [4]): 0
- Blackgrass plant response rating (blackgrass; [5]): 0
- Blackgrass plant response rating (0 to 10 scale) (blackgrass; Preemergence, Rate 250 g/ha): 0
- Blackgrass plant response rating (blackgrass; [6]): 3
- Plant response rating, Blackgrass (blackgrass; [7]): 3

SMILES: CC(C)N(C(=O)n1oc(=O)n(C2CC=CCC2)c1=O)c1ccc(F)cc1 (stereo not shown) [Compound 793]
- Ducksalad plant response rating (duck salad; [12]): 6
- Ducksalad plant response rating (duck salad; [13]): 7
- Ducksalad plant response rating (duck salad; [11]): 8
- S. Flatsedge plant response rating (smallflower flatsedge; [12]): 6
- S. Flatsedge plant response rating (smallflower flatsedge; [13]): 7
- S. Flatsedge plant response rating (smallflower flatsedge; [11]): 8
- Barnyardgrass plant response rating (bamyardgrass; [12]): 0
- Barnyardgrass plant response rating (bamyardgrass; [13]): 0
- Barnyardgrass plant response rating (bamyardgrass; [11]): 0
- Rice plant response rating (rice; [12]): 0
- Rice plant response rating (rice; [13]): 0
- Rice plant response rating (rice; [11]): 0
